Measurements published in ChEMBL document CHEMBL1152051, “Synthesis and preliminary pharmacological evaluation of 2-benzyloxy substituted aryl ketones as 5-HT4 receptor antagonists” (Bioorg Med Chem Lett, 1994).

Legend:
[1] = biological target: 5-hydroxytryptamine receptor 4 (Rattus norvegicus) (UniProt Q62758); assay: Compound was tested against 5-HT4 receptor through antagonism of 5-HT mediated relaxation of rat, carbachol contracted esophageal muscularis mucosae; assay type: functional
[2] = biological target: 5-hydroxytryptamine receptor 4 (Rattus norvegicus, UniProt Q62758); assay: Compound was tested against 5-HT4 receptor through agonism of 5-HT mediated relaxation of rat, carbachol contracted esophageal muscularis mucosae; assay type: functional
5-hydroxytryptamine receptor 4 (Rattus norvegicus, UniProt Q62758), sequence (Q62758 whole entry): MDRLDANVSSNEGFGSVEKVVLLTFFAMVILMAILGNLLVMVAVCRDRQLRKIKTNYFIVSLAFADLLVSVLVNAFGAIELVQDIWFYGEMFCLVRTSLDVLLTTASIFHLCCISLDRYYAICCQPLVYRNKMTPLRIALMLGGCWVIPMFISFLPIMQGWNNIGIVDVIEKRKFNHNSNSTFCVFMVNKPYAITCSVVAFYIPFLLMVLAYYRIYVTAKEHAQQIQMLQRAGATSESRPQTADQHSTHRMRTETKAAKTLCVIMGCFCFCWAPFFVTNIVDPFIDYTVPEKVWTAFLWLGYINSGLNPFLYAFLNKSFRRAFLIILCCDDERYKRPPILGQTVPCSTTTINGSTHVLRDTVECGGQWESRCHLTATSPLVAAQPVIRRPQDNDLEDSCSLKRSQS

[3] = biological target: 5-hydroxytryptamine receptor 4 (Cavia porcellus, UniProt O70528); assay: Compound was tested for binding affinity against 5-HT4 receptor in guinea pig striata using [3H]GR-113808 as radioligand
5-hydroxytryptamine receptor 4 (Cavia porcellus, UniProt O70528), sequence (O70528 whole entry): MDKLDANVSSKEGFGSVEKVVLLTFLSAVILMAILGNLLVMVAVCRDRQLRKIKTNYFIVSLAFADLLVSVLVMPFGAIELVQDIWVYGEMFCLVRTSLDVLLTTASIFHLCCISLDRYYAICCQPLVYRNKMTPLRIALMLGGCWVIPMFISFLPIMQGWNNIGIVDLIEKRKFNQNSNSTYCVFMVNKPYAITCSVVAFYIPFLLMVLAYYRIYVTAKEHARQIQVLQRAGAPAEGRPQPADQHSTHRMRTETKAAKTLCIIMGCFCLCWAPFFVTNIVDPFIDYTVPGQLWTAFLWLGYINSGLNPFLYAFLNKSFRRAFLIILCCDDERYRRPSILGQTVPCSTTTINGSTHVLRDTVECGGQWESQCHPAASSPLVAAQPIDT

5-hydroxytryptamine receptor 4 (Rattus norvegicus), sequence (Q62758 whole entry): as the sequence (Q62758 whole entry) above

pKb [1] | EC50 [2] [nM] | Ki [3] [nM] | Compound
6.8 |  |  | COc1ccc(CCOc2cc(N)c(Cl)cc2C(=O)CCCCN2CCCCC2)cc1OC
8.4 |  |  | COc1cc(COc2cc(N)c(Cl)cc2C(=O)CCCCN2CCC(NS(C)(=O)=O)CC2)cc(OC)c1
8.4 |  |  | COc1ccc(COc2cc(N)c(Cl)cc2C(=O)CCCCN2CCCCC2)cc1
7.7 |  |  | COc1cc(COc2cc(N)c(Cl)cc2C(=O)CCCCN2CCC(c3ccccc3)CC2)cc(OC)c1
 | 39.8 |  | COc1cc(N)c(Cl)cc1C(=O)CCCCN1CCCCC1
8.8 |  | 0.339 | COc1cc(COc2cc(N)c(Cl)cc2C(=O)CCC2CCN(CCCNS(C)(=O)=O)CC2)cc(OC)c1
9 |  |  | Cn1cc(C(=O)OCC2CCN(CCNS(C)(=O)=O)CC2)c2ccccc21
8.3 |  |  | COc1cc(COc2cc(N)c(Cl)cc2C(=O)CCCCN2CCC(C)CC2)cc(OC)c1
 | 2000 |  | CCCOc1cc(N)c(Cl)cc1C(=O)CCCCN1CCCCC1
9.2 |  | 0.741 | COc1cc(COc2cc(N)c(Cl)cc2C(=O)CCC2CCN(CCNS(C)(=O)=O)CC2)cc(OC)c1
8.5 |  |  | COc1cc(COc2cc(N)c(Cl)cc2C(=O)CCCCN2CCC(NC(N)=O)CC2)cc(OC)c1
 |  | 0.0129 | CCCCN1CCC(COC(=O)c2cc(Cl)c(N)c3c2OCCO3)CC1
8.4 |  |  | COc1cc(COc2cc(N)c(Cl)cc2C(=O)CCCCN2CCC(C(N)=O)CC2)cc(OC)c1
9.1 |  | 0.468 | COc1cc(COc2cc(N)c(Cl)cc2C(=O)CCC2CCN(CCN(C)S(C)(=O)=O)CC2)cc(OC)c1
8.9 |  |  | COc1cc(COc2cc(N)c(Cl)cc2C(=O)CCCCN2CCC(CNS(C)(=O)=O)CC2)cc(OC)c1
8.3 |  |  | COc1cc(COc2cc(N)c(Cl)cc2C(=O)CCCCN2CCC(O)CC2)cc(OC)c1
7.7 |  |  | CCCC1CCN(CCCCC(=O)c2cc(Cl)c(N)cc2OCc2cc(OC)cc(OC)c2)CC1
8.4 |  |  | COc1cc(COc2cc(N)c(Cl)cc2C(=O)CCCCN2CCC(OC)CC2)cc(OC)c1
8.1 |  |  | COc1cc(COc2cc(N)c(Cl)cc2C(=O)CCCCN2CCC(CCNS(C)(=O)=O)CC2)cc(OC)c1
< 7 |  |  | CCOc1cc(N)c(Cl)cc1C(=O)CCCCN1CCCCC1
8.5 |  |  | COc1ccc(COc2cc(N)c(Cl)cc2C(=O)CCCCN2CCCCC2)cc1OC
8.9 |  | 0.479 | CCCCN1CCC(CCC(=O)c2cc(Cl)c(N)cc2OCc2cc(OC)cc(OC)c2)CC1
8.1 |  | 1.78 | CS(=O)(=O)NCCN1CCC(CCC(=O)c2cc(Cl)c(N)cc2OCc2ccccc2)CC1
9.1 |  | 0.813 | CCCCCN1CCC(CCC(=O)c2cc(Cl)c(N)cc2OCc2cc(OC)cc(OC)c2)CC1
8.5 |  |  | COc1cc(COc2cc(N)c(Cl)cc2C(=O)CCCCN2CCCCC2)cc(OC)c1
